Measured values from patent US6331555A, “Treatment of platelet derived growth factor related disorders such as cancers” (priority 1999, dated 2001).
Where two headings read alike, the source gives them in different places.

How the values were obtained:
C6 cells = assay: C6 SRB growth assay; assay type: cell-based, rat
C6 glioma cells = assay: C6 glioma SC xenograft in mice; assay type: in vivo; details: for inhibition in vivo at 15 mg/kg: Rattus norvegicus, C6 glioma, sc, read-out: C6 in vivo EFFICACY
Outline: (§1)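 C6 (3×10^6) or SKOV-3 (1×10^7) cells in PBS were implanted into the hind flank of female Balb/c nu/nu mice on Day 0; U87MG and U118MG went into athymic mice. Tumors were caliper-measured over 3–6 weeks, with volume as length×width×height. P values came from Student's t-test.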

PDGFR = PDGFR (Homo sapiens, UniProt P09619); assay: PDGF-stimulated receptor phosphorylation in U1242 cells, ELISA; assay type: cell-based; set-up: U1242 (PDGF-β receptor); host or cells: U1242 MG glioma cells; details: for IC50: 100 ng/ml PDGF-BB, read-out: ELISA P-TYR U1242 IC50
Chain of PDGFR (P09619 33-1106): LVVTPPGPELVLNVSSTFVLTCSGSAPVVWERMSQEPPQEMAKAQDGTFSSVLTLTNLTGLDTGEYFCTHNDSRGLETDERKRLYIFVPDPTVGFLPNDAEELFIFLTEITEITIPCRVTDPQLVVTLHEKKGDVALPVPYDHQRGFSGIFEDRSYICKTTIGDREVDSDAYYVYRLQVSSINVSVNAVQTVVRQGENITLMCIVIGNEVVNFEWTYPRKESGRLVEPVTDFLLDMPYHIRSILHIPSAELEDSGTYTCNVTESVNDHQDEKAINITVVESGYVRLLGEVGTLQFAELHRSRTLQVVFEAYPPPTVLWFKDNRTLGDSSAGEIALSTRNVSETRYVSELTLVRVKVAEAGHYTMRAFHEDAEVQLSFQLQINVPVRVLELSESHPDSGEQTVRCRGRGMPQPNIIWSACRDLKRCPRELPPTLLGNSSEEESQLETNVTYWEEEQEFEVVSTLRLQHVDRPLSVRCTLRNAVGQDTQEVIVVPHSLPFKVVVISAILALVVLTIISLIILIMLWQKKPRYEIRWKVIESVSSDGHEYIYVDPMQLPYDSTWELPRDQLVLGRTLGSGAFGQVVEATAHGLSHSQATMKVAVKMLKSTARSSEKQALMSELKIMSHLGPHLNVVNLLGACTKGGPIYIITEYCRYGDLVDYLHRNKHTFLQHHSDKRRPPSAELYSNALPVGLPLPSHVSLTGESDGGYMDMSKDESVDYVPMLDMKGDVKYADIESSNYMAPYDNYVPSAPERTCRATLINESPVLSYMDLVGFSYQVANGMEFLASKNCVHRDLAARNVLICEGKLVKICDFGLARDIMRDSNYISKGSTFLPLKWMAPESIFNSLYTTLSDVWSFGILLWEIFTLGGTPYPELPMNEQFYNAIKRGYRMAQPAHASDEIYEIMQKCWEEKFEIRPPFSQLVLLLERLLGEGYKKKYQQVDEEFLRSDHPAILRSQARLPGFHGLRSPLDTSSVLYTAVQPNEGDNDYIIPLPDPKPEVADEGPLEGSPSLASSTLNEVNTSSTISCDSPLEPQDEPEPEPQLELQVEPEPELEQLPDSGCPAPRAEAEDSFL
Outline: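 U1242 MG cells in 0.5% serum were pretreated with compound for 2 h at 37° C, then stimulated 5–10 min with PDGF-BB (100 ng/ml). Lysates captured on anti-PDGF receptor-coated plates; receptor phosphotyrosine detected by anti-phosphotyrosine ELISA with POD/ABTS read-out at 410 nm.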

U1242 cells = assay: Cytotoxicity in U1242 cells, LDH; assay type: cell-based; details: Homo sapiens, read-out: CYTOXICITY LDH U1242 LD50
Description: The cytotoxicity of each drug was also determined. The cells were plated as described above. Following incubation with drug, cell survival was measured by an MTT assay as described by Mossman J. Immunol. Methods 65:55-63 (1983), or by measuring the amount of LDH released (Korzeniewski and Callewaert, J. Immunol. Methods 64:313 (1983); Decker and Lohmann-Matthes, J. Immunol. Methods 115:61 (1988) .

[1] = C6 glioma SC xenograft in mice; assay type: in vivo; details: rat, in vivo, ip; for mortality at 336 h: 15 mg/kg
Outline: as §1

[2] = Rattus norvegicus, C6; read-out: C6 SRB IC50
[3] = heading: CYTOXICITY LDH U1242 LD50

Structure (SMILES): Cc1oncc1C(=O)Nc1ccc(C(F)(F)F)cc1 [Compound A10, 5-methylisoxazole-4 carboxylic acid-(4-trifluromethyl)-anilide]
- IC50 (C6 cells; Rattus norvegicus, C6; PDGF-R expression ++; read-out: SRB): 0.3 µM
- inhibition in tumor growth (C6 glioma cells; 15 mg/kg/day (DMSO), after 20 days): greater than 90%
- % Inhibition (C6 glioma cells; 15 mg/kg/day, DMSO): 90%
- % Inhibition (C6 glioma cells; 15 mg/kg/day, PBTE): 92%
- % Inhibition (C6 glioma cells; 20 mg/kg (DMSO), 2 days): 77%
- % Inhibition (C6 glioma cells; 20 mg/kg (DMSO), 4 days): 60%
- % Inhibition (C6 glioma cells; 20 mg/kg (PBTE:D5W), daily): > 95%
- % Inhibition (C6 glioma cells; 20 mg/kg, PBTE:D5W): > 95%
- % Inhibition (C6 glioma cells; 20 mg/kg/day, DMSO): 95%
- % Inhibition (C6 glioma cells; 20 mg/kg/day, PBTE): > 95%
- % Inhibition (C6 glioma cells; 30 mg/kg (DMSO), 2 days): 91%
- % Inhibition (C6 glioma cells; 30 mg/kg (DMSO), 3 days): 87%
- % Inhibition (C6 glioma cells; 40 mg/kg (PBTE), 2 days): > 95%
- % Inhibition (C6 glioma cells; 40 mg/kg/2 days, PBTE): > 95%
- % Inhibition (C6 glioma cells; 60 mg/kg (PBTE), weekly): 51%
- % Inhibition (C6 glioma cells; 100 mg/kg (PBTE), weekly): 63%
- efficacy of formulations (C6 glioma cells; PBTE, PBTE:D5W and DMSO): equivalent in vivo inhibition of tumor growth
- % Inhibition (C6 glioma cells; nu/nu, 20 mg/kg/day, day 21): > 95%
- % Inhibition (C6 glioma cells; nu/nu†, 20 mg/kg/day, day 18, delayed start): 84%
- In Vivo inhibition (C6 glioma cells; xenografted athymic mice): 95%
- IC50 (PDGFR): 65 µM

Structure (SMILES): N#CC(=Cc1c[nH]c2ccccc12)C(N)=S [Compound D11]
- IC50 (PDGFR): 8 µM

Structure (SMILES): N#CC(=Cc1c[nH]c2ccccc12)c1[nH]nc(N)c1C#N [Compound D14]
- CC50 (U1242 cells): > 100 µM
- IC50 (PDGFR): 20 µM

Structure (SMILES): CN(C)CCCn1cc(C=C(C#N)c2[nH]nc(N)c2C#N)c2ccccc21 [Compound D15]
- IC50 (PDGFR): 20 µM

Structure (SMILES): O=c1c2ccccc2nc(C=Cc2ccc(O)c(O)c2)n1CCO [Compound F10]
- IC50 (C6 cells; [2]): > 12.5 µM
- IC50 (PDGFR): 45 µM

Structure (SMILES): Cc1cc2ncc(-c3ccccc3)nc2cc1C [Compound G13]
- CC50 (U1242 cells; [3]): > 100 µM
- IC50 (C6 cells; Rattus norvegicus, C6, read-out: C6 SRB IC50): > 50 µM
- mortality at 336 h [1]: 0%
- inhibition in vivo at 15 mg/kg (C6 glioma cells): 12%
- inhibition of PDGF-stimulated receptor phosphorylation (PDGFR): had the lowest IC50

Structure (SMILES): COc1cc2ncc(-c3ccccc3)nc2cc1OC [Compound G14]
- CC50 (U1242 cells; [3]): > 100 µM
- IC50 (C6 cells; [2]): > 50 µM
- mortality at 336 h [1]: 0%
- inhibition in vivo at 15 mg/kg (C6 glioma cells; at 15 mg/kg): 36%
- inhibition of PDGF-stimulated receptor phosphorylation (PDGFR): had the lowest IC50
- IC50 (PDGFR): 0.8 µM

Structure (SMILES): Cc1cc2nc(-c3ccccc3)c(=O)[nH]c2cc1C [Compound G18]
- CC50 (U1242 cells): > 100 µM
- IC50 (PDGFR): 10 µM

Structure (SMILES): c1ccc(-c2cnc3cc4ccccc4cc3n2)cc1 [Compound G22]
- CC50 (U1242 cells): > 100 µM
- IC50 (C6 cells; [2]): > 6 µM
- mortality ([1]; 20 mg/kg): 0%
- C6 in vivo EFFICACY (C6 glioma cells; at 20 mg/kg): no effect
- IC50 (PDGFR): 1 µM
